Where two headings read alike, the source gives them in different places.
Legend:
Bst DNA polymerase = target: T1, Bst DNA polymerase (Geobacillus stearothermophilus, UniProt P52026); test: Stepwise sequencing with TTP and E-dUTP, context metric (Example 8); type: biochemical; conditions: 0.05 fraction of dUTP*
T1 sequence (P52026 1-876): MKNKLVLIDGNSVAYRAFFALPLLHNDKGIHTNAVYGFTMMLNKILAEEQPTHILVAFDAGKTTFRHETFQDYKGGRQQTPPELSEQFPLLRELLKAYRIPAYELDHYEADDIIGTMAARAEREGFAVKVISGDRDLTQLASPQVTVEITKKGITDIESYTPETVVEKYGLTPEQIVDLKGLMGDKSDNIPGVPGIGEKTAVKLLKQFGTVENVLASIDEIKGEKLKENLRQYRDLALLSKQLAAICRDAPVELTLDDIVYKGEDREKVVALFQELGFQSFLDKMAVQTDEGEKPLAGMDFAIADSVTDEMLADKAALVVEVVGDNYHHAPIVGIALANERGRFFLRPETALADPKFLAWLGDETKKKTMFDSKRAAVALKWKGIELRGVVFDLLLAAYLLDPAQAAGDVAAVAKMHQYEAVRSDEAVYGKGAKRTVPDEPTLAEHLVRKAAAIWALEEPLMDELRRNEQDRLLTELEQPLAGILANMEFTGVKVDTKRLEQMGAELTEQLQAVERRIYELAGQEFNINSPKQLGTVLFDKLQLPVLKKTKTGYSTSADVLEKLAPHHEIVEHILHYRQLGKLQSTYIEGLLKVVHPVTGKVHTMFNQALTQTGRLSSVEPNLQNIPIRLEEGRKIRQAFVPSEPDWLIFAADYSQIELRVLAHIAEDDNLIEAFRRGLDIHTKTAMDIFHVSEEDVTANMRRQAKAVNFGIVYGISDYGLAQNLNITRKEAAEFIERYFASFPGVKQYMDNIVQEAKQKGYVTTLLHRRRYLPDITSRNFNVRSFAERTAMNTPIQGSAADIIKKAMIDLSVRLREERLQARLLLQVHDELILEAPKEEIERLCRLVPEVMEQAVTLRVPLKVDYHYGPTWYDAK
Excerpt: A microscope slide surface was modified with polyaminosilane to allow the attachment of 1 micron beads each containing one of three different oligonucleotide templates. To each template was bound an oligonucleotide primer and Bst DNA polymerase. Solutions of mixtures of labeled and unlabeled nucleotide, of one type at a time, were exposed to the surface, followed by a wash solution. The fluorescence of labeled beads was detected and quantitated. The fluorescence label was cleaved by treatment with tris(hydroxypropyl)phosphine (THP) after each step.
Context was measured for each experiment. Context is given by the context metric, C, which is defined as the (maximum-minimum signal)/average signal.

Bst DNA polymerase v.2.0 = test: Competition assay: one base extension, capillary electrophoresis and flow cytometry (Example 6); type: biochemical
Experimental: The final concentrations of various nucleotides in the mixtures were 5 micromolar (μM). […] A solution of biotinylated template (2 microliters (μL) of 100 μM) and dye-labeled primer (4 μL of 100 μM) were combined in annealing buffer (40 μL; Tris (10 millimolar (mM)), EDTA (1 mM), NaCl (100 mM)). The resulting solution was heated to 95° C. and allowed to slowly cool to room temperature. […] New England Biolabs) for five minutes. […] Next, a portion of the suspended magnetic beads (10 μL) were removed and placed in a PCR tube. A solution of nucleotides (10 μL) was added to the tube and the tube incubated for 40 seconds (s) at 50° C. The enzyme reaction was stopped with the addition of 5 μL of 50 mM EDTA. The beads were washed with 2×100 μL TET and resuspended in 20 μL TET. […] The eluant of the remaining beads was removed and 40 μL of 95:5 formamide:10 mM EDTA was added to the beads. A portion of the formamide solution (1 μL) was added to 40 μL 95:5 formamide EDTA. The solutions were examined by capillary electrophoresis (CE) on an ABI 3730 instrument and the peaks identified and quantitated by peak height. The experimental protocol is summarized schematically in FIG. 2.

hairpin oligo = test: Kinetic assay using hairpin oligos (Example 7); type: biochemical
Experimental: A kinetic assay using hairpin oligos was also performed to determine the rate of incorporate of an unnatural nucleotide and a natural nucleotide following the unnatural nucleotide. […] Incorporation of a T or U analog unquenched a fluorescein in the hairpin oligo. Following incorporation of the T or U analog, a mixture of C and A was added, which further unquenched the dye.

DNA polymerase = conditions: for peak height (red fluorescence on the gel): dUTP* only (Fr = 1.0) or dUTP*/named dUTP^0
Experimental: A gel assay was also performed to examine context-dependent incorporation. […] The primers had different lengths poly-T tails to enable separation on a polyacrylamide gel. […] Excess nucleotides and nucleotide analogs were washed away and the sample was loaded onto a gel.
The red fluorescence on the gel was analyzed with ImageJ. The peak heights for the extension reactions for each primer with Fr=1.0 was measured. […] The ratios of the peak heights for each pair were calculated (“norm.”). […] The metric in this experiment was context, as defined as: C=(Maximum signal−minimum signal)/(average signal).

## Cc1cn([C@H]2C[C@H](O)[C@@H](COP(=O)(O)OP(=O)(O)OP(=O)(O)O)O2)c(=O)[nH]c1=O [TTP, thymidine triphosphate, reference compound]
Bst DNA polymerase; Oligonucleotide template 1
  C (context metric): 0.86
Bst DNA polymerase; Oligonucleotide template 2
  C (context metric): 0.73
Bst DNA polymerase; Oligonucleotide template 3
  C (context metric): 0.71
Bst DNA polymerase v.2.0; 5 micromolar, 40 s at 50° C.
  CE product peaks of one base extension in competition with dUTP*: yields only a Pr-T peak
Bst DNA polymerase v.2.0; beads before stripping
  flow cytometry signal of one base extension in competition with dUTP*: relatively low
Hairpin oligo; mixture of C and A added after T or U analog
  incorporation of dCTP and dATP after the dUTP analog: rapid
Hairpin oligo; unquenching of fluorescein in hairpin oligo
  initial incorporation of dUTP analog: rapid
DNA polymerase; Peak 1
  Norm. (ratio of peak height dUTP*/dUTP^0 to Fr=1.0): 1.1
DNA polymerase; Peak 1 (primer)
  peak height (red fluorescence on the gel): 48
DNA polymerase; Peak 2
  Norm. (ratio of peak height dUTP*/dUTP^0 to Fr=1.0): 1.4
DNA polymerase; Peak 2 (primer)
  peak height (red fluorescence on the gel): 56
DNA polymerase; Peak 3
  Norm. (ratio of peak height dUTP*/dUTP^0 to Fr=1.0): 1.0
DNA polymerase; Peak 3 (primer)
  peak height (red fluorescence on the gel): 25
DNA polymerase; Peak 4
  Norm. (ratio of peak height dUTP*/dUTP^0 to Fr=1.0): 1.2
DNA polymerase; Peak 4 (primer)
  peak height (red fluorescence on the gel): 38
DNA polymerase; Peak 5
  Norm. (ratio of peak height dUTP*/dUTP^0 to Fr=1.0): 1.7
DNA polymerase; Peak 5 (primer)
  peak height (red fluorescence on the gel): 38
DNA polymerase; five primers, gel assay with dUTP*
  context C=(Maximum signal−minimum signal)/(average signal): 0.54

From patent publication US11326207B2, “Sequencing using non-natural nucleotides” (Ultima Genomics, Inc., priority 2017, dated 2022)
